The target of one experiment is PDE2A (Homo sapiens, UniProt O00408). Kind of experiment: In vitro PDE selectivity assay, PDE2A. Format: biochemical. Conditions: Table 4a in vitro selectivity; read-out: IC50 PDE type 2A. On the procedure:
(§1) Rat recombinant PDE10A (rPDE10A2) was expressed in Sf9 cells using a recombinant rPDE10A baculovirus construct. Cells were harvested after 48 h of infection and the rPDE10A protein was purified by metal chelate chromatography on Ni-sepharose 6FF. […] The reaction was incubated for 60 min. at RT. […] After sedimentation of the beads during 30 min. the radioactivity was measured in a Perkin Elmer Topcount scintillation counter and results were expressed as cpm. For blank values the enzyme was omitted from the reaction and replaced by incubation buffer. […] The same assay principle is applied for the measurement of the affinity of the compound for other members of the PDE family with appropriate modifications in incubation buffer, substrate concentration, incubation time and stop solution.

For another experiment, the target named is PDE9A (Homo sapiens, UniProt O76083). The experiment in a line: In vitro PDE selectivity assay, PDE9A. It counts as biochemical. Conditions: Table 4a in vitro selectivity; read-out: IC50 PDE type 9A. On the procedure:
as §1

In experiment [1] the test system is SCH-23390-induced hypolocomotion. Kind of experiment: SCH-23390-induced hypolocomotion in mice. It counts as in vivo. Particulars: Mus musculus; male NMRI mice, pretreated 0.5 h earlier; criterion total distance >2500 counts; read-out: ED50 reversal of SCH-23390-induced hypolocomotion. On the procedure: SCH-23390-Induced Hypolocomotion in Mice
SCM-23390 (0.08 mg/kg, i.v.)-induced hypolocomotion was evaluated over a 30-min period starting immediately after the SCH-23390 challenge in male NMRI mice pretreated 0.5 h earlier with test compound or solvent. Averaged activity in solvent-treated control mice was 1540±559 counts (mean±SD; n=103). Criterion for drug-induced reversal of the SCH-23390-induced hypolocomotion: total distance: >2500 counts (2.9% false positives in controls).

A further experiment has as its target PDE11A (Homo sapiens, UniProt Q9HCR9). The experiment in a line: In vitro PDE selectivity assay, PDE11A. Format: biochemical. Conditions: Table 4a in vitro selectivity; read-out: IC50 PDE type 11A. On the procedure:
as §1

Another experiment addresses T1, PDE10 (Rattus norvegicus, UniProt Q9QYJ6).
T1 construct: from tissue; host or cells: rat brain sections, striatum (ex vivo autoradiography after in vivo dosing)
T1 sequence (Q9QYJ6 1-794): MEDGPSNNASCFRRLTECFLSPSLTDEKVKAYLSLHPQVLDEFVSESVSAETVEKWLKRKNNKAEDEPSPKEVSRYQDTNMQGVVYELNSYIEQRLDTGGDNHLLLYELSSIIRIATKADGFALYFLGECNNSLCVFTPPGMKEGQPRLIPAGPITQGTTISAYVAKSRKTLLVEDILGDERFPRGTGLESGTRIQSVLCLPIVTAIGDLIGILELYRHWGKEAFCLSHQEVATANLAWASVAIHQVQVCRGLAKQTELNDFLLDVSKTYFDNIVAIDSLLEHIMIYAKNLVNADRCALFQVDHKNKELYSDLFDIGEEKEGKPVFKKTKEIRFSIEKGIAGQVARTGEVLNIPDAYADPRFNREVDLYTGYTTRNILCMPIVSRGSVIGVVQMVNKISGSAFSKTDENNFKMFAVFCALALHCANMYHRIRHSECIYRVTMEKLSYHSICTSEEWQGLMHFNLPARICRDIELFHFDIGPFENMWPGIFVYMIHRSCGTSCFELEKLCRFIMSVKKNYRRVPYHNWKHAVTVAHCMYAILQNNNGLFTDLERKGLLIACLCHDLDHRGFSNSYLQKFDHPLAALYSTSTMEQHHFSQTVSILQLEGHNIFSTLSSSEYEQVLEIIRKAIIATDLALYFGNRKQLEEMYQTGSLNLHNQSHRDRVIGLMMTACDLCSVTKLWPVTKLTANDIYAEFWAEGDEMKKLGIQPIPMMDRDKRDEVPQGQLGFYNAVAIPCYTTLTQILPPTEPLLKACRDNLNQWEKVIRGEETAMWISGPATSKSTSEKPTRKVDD
Kind of experiment: PDE10 occupancy ([3H]-MP-10, striatum). Conditions: rat, sc; occupancy, administered s.c.; read-out: Occ. ED50. It counts as in vivo. On the procedure:
Dose-response or single dose experiments were performed to measure PDE10 occupancy 1 hour after subcutaneous (s.c.) or oral (p.o.) administration. Male Wistar rats (200 g) were treated by s.c. or p.o. administration of various PDE10 inhibitors. The PDE10 radioligand [^3H]-MP-10 (10 μCi/animal) was injected intravenously (i.v.) 30 minutes before sacrifice. Brains were immediately removed from the skull and rapidly frozen. Twenty μm-thick brain sections were cut using a cryostat-microtome, thaw-mounted on microscope slides and loaded in a β-imager to quantify PDE10 occupancy in the striatum.

The target of experiment [2] is T2, Rat recombinant PDE10A (rPDE10A2) (Rattus norvegicus, UniProt Q9QYJ6).
T2 construct: made in house; host or cells: Sf9 insect cells, baculovirus
T2 sequence (Q9QYJ6 1-794): T1 sequence (Q9QYJ6 1-794)
The experiment in a line: In vitro assay PDE10A (SPA, 3H-cAMP). It counts as biochemical. Summed up:
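Purified Sf9-expressed rat PDE10A2 incubated 60 min at RT with 60 nM cAMP plus 0.008 μCi 3H-cAMP in 50 mM Tris pH 7.8, 8.3 mM MgCl2, 1.7 mM EGTA, 1% DMSO final. Product quantified by scintillation proximity counting against no-enzyme blanks and DMSO controls.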

The next experiment addresses PDE4D (Homo sapiens, UniProt Q08499). The experiment in a line: In vitro PDE selectivity assay, PDE4D. Format: biochemical. Conditions: Table 4a in vitro selectivity; read-out: IC50 PDE type 4D. On the procedure: as §1
The target in the next experiment is PDE7A (Homo sapiens, UniProt Q13946). The experiment in a line: In vitro PDE selectivity assay, PDE7A. Particulars: Table 4a in vitro selectivity; read-out: IC50 PDE type 7A. It counts as biochemical. As for the experimental part:
as §1

The target of a further experiment is PDE1B (Homo sapiens, UniProt Q01064). Kind of experiment: In vitro PDE selectivity assay, PDE1B. It counts as biochemical. Conditions: Table 4a in vitro selectivity; read-out: IC50 PDE type 1B. On the procedure:
as §1

The next experiment deals with PDE8A1 (Homo sapiens, UniProt O60658). The experiment in a line: In vitro PDE selectivity assay, PDE8A. Format: biochemical. Conditions: Table 4a in vitro selectivity; read-out: IC50 PDE type 8A. As for the experimental part:
as §1

Where two headings read alike, the source gives them in different places. A value given as a limit tells only on which side of the number the result lay.

Chain of PDE2A (O00408 whole entry, species assumed): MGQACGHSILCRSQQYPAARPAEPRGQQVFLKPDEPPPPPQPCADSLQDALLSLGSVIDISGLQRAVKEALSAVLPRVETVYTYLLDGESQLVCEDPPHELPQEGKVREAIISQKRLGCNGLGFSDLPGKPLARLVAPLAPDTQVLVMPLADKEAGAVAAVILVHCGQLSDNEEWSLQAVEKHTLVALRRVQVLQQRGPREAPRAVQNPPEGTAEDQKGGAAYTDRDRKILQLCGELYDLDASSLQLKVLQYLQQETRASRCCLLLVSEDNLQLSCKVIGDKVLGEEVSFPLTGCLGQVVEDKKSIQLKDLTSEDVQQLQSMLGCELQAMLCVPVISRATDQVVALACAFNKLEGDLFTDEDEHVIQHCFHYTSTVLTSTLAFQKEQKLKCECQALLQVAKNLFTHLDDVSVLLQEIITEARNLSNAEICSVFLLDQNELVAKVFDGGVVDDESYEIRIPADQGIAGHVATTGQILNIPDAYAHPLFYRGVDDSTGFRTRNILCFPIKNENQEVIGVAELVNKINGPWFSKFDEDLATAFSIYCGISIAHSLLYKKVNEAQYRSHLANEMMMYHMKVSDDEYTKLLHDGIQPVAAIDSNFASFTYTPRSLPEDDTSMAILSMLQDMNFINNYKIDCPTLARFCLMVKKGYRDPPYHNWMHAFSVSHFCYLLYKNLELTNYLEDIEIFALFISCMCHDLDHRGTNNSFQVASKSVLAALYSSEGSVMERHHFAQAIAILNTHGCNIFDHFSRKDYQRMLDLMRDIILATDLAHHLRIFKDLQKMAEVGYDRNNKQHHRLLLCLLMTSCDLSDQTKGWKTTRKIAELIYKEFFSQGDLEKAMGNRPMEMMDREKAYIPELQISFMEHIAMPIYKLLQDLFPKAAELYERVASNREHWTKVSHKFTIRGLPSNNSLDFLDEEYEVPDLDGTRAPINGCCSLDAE
Chain of PDE4D (Q08499 whole entry, species assumed): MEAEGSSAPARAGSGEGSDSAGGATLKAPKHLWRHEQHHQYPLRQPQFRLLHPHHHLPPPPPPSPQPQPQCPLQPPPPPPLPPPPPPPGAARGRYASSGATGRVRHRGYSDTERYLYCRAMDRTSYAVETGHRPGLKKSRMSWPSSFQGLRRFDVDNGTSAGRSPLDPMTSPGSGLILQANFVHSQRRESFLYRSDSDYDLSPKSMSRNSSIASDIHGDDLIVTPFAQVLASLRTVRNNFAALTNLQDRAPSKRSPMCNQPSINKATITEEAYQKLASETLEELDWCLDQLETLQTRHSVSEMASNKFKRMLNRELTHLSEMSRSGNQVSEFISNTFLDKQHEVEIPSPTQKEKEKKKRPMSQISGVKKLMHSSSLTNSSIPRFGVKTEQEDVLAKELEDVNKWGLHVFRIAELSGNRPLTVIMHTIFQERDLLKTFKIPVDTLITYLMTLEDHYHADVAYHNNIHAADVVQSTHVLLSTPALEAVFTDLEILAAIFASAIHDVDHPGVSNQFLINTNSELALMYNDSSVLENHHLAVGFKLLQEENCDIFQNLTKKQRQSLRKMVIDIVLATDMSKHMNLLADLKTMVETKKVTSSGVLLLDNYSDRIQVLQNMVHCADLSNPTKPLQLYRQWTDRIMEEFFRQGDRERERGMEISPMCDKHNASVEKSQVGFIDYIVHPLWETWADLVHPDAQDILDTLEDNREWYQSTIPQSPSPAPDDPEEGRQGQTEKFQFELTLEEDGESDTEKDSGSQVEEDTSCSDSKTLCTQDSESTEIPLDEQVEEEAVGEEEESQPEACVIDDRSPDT
Chain of PDE11A (Q9HCR9 whole entry, species assumed): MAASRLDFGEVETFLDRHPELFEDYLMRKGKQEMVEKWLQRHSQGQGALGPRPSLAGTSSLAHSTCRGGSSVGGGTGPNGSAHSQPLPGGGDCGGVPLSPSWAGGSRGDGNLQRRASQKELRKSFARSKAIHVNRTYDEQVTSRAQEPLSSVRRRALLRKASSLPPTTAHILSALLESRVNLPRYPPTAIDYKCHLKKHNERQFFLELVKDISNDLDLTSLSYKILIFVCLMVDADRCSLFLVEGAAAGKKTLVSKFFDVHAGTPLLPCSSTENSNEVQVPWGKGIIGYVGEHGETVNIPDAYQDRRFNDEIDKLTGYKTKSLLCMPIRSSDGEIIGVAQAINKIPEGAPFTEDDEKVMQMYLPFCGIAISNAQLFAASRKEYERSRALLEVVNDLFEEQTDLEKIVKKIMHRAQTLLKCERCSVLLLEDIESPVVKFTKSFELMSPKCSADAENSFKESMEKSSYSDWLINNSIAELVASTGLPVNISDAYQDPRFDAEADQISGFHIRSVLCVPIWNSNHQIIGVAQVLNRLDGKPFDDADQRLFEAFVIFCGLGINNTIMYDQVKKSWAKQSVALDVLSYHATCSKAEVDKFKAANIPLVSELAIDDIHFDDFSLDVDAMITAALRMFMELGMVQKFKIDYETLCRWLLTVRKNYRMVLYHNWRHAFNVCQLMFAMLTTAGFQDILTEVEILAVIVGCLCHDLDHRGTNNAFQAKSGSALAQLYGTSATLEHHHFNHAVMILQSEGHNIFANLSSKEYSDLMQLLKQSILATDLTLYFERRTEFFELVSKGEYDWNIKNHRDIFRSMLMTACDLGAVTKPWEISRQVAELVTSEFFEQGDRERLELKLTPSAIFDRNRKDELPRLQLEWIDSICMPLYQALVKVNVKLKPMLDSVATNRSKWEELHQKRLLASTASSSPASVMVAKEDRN
Chain of PDE7A (Q13946 whole entry, species assumed): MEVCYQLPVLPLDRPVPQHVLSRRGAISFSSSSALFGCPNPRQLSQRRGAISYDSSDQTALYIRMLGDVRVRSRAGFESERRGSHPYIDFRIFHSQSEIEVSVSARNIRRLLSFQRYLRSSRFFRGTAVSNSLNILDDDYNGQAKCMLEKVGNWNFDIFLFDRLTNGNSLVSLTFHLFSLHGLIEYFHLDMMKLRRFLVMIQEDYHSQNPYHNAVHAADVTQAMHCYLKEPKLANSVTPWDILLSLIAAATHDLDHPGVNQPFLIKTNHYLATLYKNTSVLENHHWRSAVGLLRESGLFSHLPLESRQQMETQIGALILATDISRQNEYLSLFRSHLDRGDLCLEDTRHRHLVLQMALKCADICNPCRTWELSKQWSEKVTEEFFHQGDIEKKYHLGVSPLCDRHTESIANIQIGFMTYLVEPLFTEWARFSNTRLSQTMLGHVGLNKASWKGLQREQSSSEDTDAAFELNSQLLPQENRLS
Chain of PDE1B (Q01064 whole entry): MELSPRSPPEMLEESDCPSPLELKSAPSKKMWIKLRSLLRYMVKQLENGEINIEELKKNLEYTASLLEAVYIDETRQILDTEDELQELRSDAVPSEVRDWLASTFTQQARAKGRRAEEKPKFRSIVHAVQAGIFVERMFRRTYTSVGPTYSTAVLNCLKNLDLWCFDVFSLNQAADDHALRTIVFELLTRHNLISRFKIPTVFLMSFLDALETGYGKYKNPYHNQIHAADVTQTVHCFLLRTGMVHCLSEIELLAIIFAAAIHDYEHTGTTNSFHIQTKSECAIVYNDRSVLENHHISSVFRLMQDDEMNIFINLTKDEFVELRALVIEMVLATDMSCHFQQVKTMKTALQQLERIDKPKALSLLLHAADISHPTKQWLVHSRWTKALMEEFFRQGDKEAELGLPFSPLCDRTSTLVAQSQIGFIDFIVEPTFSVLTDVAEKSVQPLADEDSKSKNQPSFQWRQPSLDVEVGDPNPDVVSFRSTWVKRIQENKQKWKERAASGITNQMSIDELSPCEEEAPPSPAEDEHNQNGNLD
Chain of PDE9A (O76083 whole entry): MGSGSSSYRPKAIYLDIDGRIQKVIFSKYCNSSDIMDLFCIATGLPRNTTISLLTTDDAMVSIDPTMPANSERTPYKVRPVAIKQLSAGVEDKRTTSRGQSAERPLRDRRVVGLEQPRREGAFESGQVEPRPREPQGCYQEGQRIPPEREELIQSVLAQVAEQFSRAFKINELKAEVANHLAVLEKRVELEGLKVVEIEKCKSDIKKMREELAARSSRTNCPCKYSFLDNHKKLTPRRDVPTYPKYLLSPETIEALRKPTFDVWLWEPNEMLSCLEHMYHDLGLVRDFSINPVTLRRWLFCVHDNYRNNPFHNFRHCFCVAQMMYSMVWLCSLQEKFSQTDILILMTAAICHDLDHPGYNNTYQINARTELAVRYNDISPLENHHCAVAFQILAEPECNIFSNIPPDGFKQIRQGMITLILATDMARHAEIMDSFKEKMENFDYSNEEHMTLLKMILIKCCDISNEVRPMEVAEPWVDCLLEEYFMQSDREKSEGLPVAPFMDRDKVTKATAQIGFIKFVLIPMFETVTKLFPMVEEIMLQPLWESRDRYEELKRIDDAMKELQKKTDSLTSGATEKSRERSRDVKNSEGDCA

For orientation: ED50 means the dose at which the effect has come halfway, by size or by number of responders. Take `Cc1nc2c(N3CCOCC3)nccn2c1-c1ccc(C2CCOCC2)nc1` [compound 25, 2-Methyl-8-morpholin-4-yl-3-[6-(tetrahydro-pyran-4-yl)-pyridin-3-yl]-imidazo[1,2-a]pyrazine]: the IC50 at PDE2A was 42.7 µM; at PDE9A, above 100 µM; at PDE11A, 66.1 µM; in [2] (Table 4a in vitro selectivity, read-out: IC50 PDE type 10A) it was 0.16 µM; in experiment [2] (pIC50 corresponds to the -log IC50 expressed in mol/L, read-out: PDE10A2 pIC50 (converted)), 0.191 µM; on PDE4D, 58.9 µM. In addition, the IC50 on PDE7A, on PDE1B and on PDE8A1 was above 100 µM throughout. In addition, the ED50 in [1] came out at 7.1 mg/kg; at PDE10, 4.6 mg/kg.
